Holding throughout (settings): Compound Concentration 10.0 uM, Hit No
The target of test [1] is N-glycosylase/DNA lyase (Homo sapiens) (UniProt O15527).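 Further: OGG1 cleavage of a quenched duplex DNA oligonucleotide, coupled to APE1 for strand incision, read as fluorescence at 594 nm.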
Description: Inhibition of OGG1 by quantifying inhibition of OGG1-mediated cleavage and dissociation of quenched duplex DNA oligonucleotides, measured as fluorescence at 594 nm. To generate a functional strand incision and increase turn-over this assay is coupled to APE1.
For test [2], the target named is DNA-3-methyladenine glycosylase (Homo sapiens) (UniProt P29372).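 Further: enzyme assay where MPG cuts a quenched duplex DNA oligonucleotide probe, paired with APE1 for strand incision and turnover, read as fluorescence at 594 nm.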
Description: Inhibition of MPG by quantifying inhibition of MPG-mediated cleavage and dissociation of quenched duplex DNA oligonucleotides, measured as fluorescence at 594 nm. To generate a functional strand incision and increase turn-over this assay is coupled to APE1.
Test [3] deals with Endonuclease 8-like 1 (Homo sapiens) (UniProt Q96FI4).
Description: Inhibition of NEIL1 by quantifying inhibition of NEIL1-mediated cleavage and dissociation of quenched duplex DNA oligonucleotides, measured as fluorescence at 594 nm.
Test [4] has as its target G/T mismatch-specific thymine DNA glycosylase (Homo sapiens) (UniProt Q13569).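 Further: human TDG cleavage of quenched duplex DNA oligonucleotides coupled to APE1, strand release read as fluorescence at 594 nm, inhibition of TDG activity.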
Description: Inhibition of TDG by quantifying inhibition of TDG-mediated cleavage and dissociation of quenched duplex DNA oligonucleotides, measured as fluorescence at 594 nm. To generate a functional strand incision and increase turn-over this assay is coupled to APE1.
In test [5] the target is T1, Adenine DNA glycosylase (Homo sapiens) (UniProt Q9UIF7).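 Further: human MUTYH activity read as 594 nm fluorescence from cleavage and release of a quenched DNA duplex, coupled with APE1 for strand incision, lower signal meaning inhibition.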
T1 sequence (whole entry): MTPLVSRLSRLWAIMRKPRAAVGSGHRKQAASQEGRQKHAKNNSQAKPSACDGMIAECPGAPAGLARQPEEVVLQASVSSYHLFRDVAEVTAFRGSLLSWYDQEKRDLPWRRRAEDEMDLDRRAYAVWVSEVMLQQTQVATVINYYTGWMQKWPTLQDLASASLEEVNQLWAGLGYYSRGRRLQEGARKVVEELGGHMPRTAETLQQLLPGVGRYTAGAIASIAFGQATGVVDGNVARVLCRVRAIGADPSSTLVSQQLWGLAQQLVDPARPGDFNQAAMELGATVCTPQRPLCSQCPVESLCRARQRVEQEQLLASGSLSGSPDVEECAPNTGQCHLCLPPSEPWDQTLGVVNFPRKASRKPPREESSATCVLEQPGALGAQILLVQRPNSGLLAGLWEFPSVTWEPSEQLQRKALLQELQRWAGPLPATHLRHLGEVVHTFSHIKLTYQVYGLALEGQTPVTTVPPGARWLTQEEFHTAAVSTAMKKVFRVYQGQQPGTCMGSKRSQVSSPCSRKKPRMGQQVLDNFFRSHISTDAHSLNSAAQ
Description: Inhibition of MUTYH by quantifying inhibition of MUTYH-mediated cleavage and dissociation of quenched duplex DNA oligonucleotides, measured as fluorescence at 594 nm. To generate a functional strand incision and increase turn-over this assay is coupled to APE1.

Test [6] deals with T2, Endonuclease III-like protein 1 (Homo sapiens) (UniProt P78549).
T2 sequence (whole entry): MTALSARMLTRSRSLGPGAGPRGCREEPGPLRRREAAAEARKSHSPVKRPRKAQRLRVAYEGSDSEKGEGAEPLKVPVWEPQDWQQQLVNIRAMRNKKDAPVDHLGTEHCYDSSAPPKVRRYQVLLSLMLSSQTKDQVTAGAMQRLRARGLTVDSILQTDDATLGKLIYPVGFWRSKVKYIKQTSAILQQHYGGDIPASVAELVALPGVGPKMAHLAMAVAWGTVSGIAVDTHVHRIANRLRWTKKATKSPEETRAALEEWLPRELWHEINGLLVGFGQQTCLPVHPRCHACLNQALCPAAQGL
Description: Inhibition of NTHL1 by quantifying inhibition of NTHL1-mediated cleavage and dissociation of quenched duplex DNA oligonucleotides, measured as fluorescence at 594 nm.

Test [7] concerns the target T3, Endonuclease 8-like 2 (Homo sapiens) (UniProt Q969S2).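 Further: fluorescence at 594 nm reports NEIL2 cutting and release of a quenched double-stranded DNA oligo substrate, reduced signal read as inhibition.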
T3 sequence (whole entry): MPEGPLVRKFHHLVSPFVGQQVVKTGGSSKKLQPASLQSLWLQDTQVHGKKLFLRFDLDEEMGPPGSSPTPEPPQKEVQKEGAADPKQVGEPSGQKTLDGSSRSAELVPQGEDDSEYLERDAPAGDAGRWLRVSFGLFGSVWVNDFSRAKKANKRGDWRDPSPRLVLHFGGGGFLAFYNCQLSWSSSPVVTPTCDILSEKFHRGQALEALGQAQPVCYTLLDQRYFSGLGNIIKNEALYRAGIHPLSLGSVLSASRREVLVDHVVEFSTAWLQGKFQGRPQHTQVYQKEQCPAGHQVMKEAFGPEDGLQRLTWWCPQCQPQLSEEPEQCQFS
Description: Inhibition of NEIL2 by quantifying inhibition of NEIL2-mediated cleavage and dissociation of quenched duplex DNA oligonucleotides, measured as fluorescence at 594 nm.

The target of test [8] is Methyl-CpG-binding domain protein 4 (Homo sapiens) (UniProt O95243).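 Further: MBD4 activity read as fluorescence at 594 nm from cleavage and release of a quenched duplex DNA oligonucleotide, with APE1 coupled to incise the strand and raise turnover.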
Description: Inhibition of MBD4 by quantifying inhibition of MBD4-mediated cleavage and dissociation of quenched duplex DNA oligonucleotides, measured as fluorescence at 594 nm. To generate a functional strand incision and increase turn-over this assay is coupled to APE1.
For test [9], the target named is Uracil-DNA glycosylase (Homo sapiens) (UniProt P13051).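 Further: UNG excision on a quenched double-stranded DNA oligo probe, with APE1 added for strand incision and turnover, read as fluorescence at 594 nm as strands separate.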
Description: Inhibition of UNG by quantifying inhibition of UNG-mediated cleavage and dissociation of quenched duplex DNA oligonucleotides, measured as fluorescence at 594 nm. To generate a functional strand incision and increase turn-over this assay is coupled to APE1.
For test [10], the target named is T4, Single-strand selective monofunctional uracil DNA glycosylase (Homo sapiens) (UniProt Q53HV7).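 Further: enzymatic SMUG1 assay coupled with APE1, reading fluorescence at 594 nm released when a quenched double-stranded DNA oligonucleotide substrate is cleaved and separated.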
T4 sequence (whole entry): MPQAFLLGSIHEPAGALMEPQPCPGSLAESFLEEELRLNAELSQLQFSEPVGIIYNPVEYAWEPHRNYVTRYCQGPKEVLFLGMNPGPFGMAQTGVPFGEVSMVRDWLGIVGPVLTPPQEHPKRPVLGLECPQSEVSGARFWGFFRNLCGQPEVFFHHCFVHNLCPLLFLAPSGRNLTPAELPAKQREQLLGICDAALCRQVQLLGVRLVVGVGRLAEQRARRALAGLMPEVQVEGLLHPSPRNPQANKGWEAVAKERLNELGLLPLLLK
Description: Inhibition of SMUG1 by quantifying inhibition of SMUG1-mediated cleavage and dissociation of quenched duplex DNA oligonucleotides, measured as fluorescence at 594 nm. To generate a functional strand incision and increase turn-over this assay is coupled to APE1.

Sequence of Endonuclease 8-like 1 (Homo sapiens) (Q96FI4 whole entry): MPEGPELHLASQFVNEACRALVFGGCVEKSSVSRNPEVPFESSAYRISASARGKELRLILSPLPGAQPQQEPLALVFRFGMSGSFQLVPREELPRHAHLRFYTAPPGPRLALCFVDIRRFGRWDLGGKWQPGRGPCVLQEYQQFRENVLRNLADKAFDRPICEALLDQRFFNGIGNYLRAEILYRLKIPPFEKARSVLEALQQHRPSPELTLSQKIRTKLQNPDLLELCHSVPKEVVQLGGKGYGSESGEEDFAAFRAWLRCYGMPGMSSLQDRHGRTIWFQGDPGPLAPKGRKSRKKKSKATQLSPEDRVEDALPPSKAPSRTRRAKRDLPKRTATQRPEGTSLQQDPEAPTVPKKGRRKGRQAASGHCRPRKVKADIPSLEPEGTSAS
Sequence of Uracil-DNA glycosylase (Homo sapiens) (P13051 whole entry): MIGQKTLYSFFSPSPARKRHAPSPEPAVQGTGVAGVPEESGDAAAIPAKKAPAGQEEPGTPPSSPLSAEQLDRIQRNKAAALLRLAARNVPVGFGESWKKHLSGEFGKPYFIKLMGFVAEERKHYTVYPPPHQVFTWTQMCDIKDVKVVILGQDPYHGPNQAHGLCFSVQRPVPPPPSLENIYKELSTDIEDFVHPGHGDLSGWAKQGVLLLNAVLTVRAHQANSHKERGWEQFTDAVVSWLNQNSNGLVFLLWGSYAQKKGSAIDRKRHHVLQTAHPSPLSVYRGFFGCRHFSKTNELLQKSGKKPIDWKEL
Sequence of G/T mismatch-specific thymine DNA glycosylase (Homo sapiens) (Q13569 whole entry): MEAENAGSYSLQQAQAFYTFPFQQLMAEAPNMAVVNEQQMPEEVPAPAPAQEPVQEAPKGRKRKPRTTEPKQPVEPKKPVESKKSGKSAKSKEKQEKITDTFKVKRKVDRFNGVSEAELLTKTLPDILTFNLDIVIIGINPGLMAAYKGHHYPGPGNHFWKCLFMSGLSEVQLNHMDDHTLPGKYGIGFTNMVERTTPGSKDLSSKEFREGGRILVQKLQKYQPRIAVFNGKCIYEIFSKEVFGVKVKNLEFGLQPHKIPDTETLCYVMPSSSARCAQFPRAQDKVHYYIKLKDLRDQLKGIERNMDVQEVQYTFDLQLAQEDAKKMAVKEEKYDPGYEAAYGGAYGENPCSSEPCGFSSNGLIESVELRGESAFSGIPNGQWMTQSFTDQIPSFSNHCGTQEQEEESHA
Sequence of DNA-3-methyladenine glycosylase (Homo sapiens) (P29372 whole entry): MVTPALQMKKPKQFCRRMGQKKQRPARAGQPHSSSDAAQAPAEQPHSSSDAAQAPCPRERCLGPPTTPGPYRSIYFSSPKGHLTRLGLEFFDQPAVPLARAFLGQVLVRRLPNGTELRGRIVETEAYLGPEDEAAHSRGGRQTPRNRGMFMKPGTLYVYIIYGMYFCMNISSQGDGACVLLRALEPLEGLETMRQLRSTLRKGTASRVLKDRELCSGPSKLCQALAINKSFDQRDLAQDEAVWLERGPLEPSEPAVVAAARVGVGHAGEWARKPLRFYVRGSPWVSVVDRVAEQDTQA
Sequence of N-glycosylase/DNA lyase (Homo sapiens) (O15527 whole entry): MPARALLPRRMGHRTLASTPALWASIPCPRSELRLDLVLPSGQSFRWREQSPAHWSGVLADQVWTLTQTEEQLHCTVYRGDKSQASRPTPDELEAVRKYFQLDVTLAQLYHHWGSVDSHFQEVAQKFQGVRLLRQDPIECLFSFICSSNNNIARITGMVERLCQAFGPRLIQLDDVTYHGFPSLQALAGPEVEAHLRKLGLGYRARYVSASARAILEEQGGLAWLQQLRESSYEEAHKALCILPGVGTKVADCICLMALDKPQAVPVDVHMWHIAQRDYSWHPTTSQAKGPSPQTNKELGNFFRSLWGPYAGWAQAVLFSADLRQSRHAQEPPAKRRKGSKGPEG
Sequence of Methyl-CpG-binding domain protein 4 (Homo sapiens) (O95243 whole entry, the tested form may be a part): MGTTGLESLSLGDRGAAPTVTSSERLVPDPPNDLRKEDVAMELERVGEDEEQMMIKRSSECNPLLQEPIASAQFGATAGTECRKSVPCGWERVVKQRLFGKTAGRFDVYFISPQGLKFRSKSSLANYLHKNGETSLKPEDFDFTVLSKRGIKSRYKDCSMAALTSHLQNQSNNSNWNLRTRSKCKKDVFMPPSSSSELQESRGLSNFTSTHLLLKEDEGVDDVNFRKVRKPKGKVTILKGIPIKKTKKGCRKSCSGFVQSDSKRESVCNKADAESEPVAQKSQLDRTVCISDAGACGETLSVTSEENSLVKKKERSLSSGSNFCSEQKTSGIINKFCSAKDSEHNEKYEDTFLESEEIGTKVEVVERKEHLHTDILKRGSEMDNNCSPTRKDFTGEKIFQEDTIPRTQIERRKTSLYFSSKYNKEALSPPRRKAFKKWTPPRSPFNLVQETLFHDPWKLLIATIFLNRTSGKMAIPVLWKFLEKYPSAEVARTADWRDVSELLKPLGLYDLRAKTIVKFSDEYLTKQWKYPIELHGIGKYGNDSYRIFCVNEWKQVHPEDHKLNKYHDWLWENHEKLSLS

On to `O=C(O)CCc1ccc(NCc2cccc(Oc3ccccc3)c2)cc1`, for which the inhibition (as a rule, the drop in the measured response relative to a control, in per cent) is -0.368% in [1]; 6.47% in [2]; -7.7% in [3]; 20% in test [4]; 13.9% in test [5]; -4.39% in test [6]. In addition, the inhibition is -9.01% in test [7], 13.6% in test [8], -1.29% in [9] and -4.08% in test [10].
For the molecule `O=C(NCC12CC3CC(CC(C3)C1)C2)c1ccccc1Cl`, the inhibition was -1.14% in test [1]; 21.7% in [2]; 11.9% in test [3]; 10.4% in [4]; 21.2% in [5]; 1.39% in test [6]. For the same molecule, the inhibition was -6.46% in [7], 30.1% in test [8], -0.487% in test [9] and -1.71% in test [10].
Consider `Clc1ccccc1C(c1ccccc1)(c1ccccc1)n1cccn1`, for which the inhibition in test [1] is -9.77%; in [2], -4.99%; in test [3] it was 5.94%; in [4], 10.7%; in test [5], 23.9%; in test [6] it was 15.4%. The inhibition is -6.46% in test [7], 5.21% in test [8], -9.12% in [9] and -6.62% in test [10].
For `Nc1nc2cc(-c3cc(Cl)ccc3Oc3cc(F)c(S(=O)(=O)Nc4ncns4)cc3F)ccc2[nH]1`, the inhibition in [1] is -2.14%; in [2], 20.7%; in test [3], 6.97%; in [4], 33.8%; in test [5] it was 39.3%; in [6] it was 6.35%. The inhibition in test [7] is -7.23%; in [8] it was 38.8%; in [9], 1.83%; in test [10], 4.45%.
On to `CC(C)c1noc(N2CCC(COc3ccc(-c4ccc(S(C)(=O)=O)cc4)nc3)CC2)n1`, for which the inhibition in test [1] is 3.18%; in test [2], -8.23%; in test [3], 10.9%; in [4], 3%; in [5], 18.2%; in [6], -6.14%. Further, the inhibition in test [7] is 5.01%; in test [8], -9.32%; in [9] it was -6.54%; in [10], -6.43%.
Turning to `Cc1cc(C)c(N)c(C#Cc2cccc(F)c2)n1`, the inhibition was 4.23% in test [1]; 3.92% in test [2]; 0.982% in test [3]; 17.2% in [4]; 4.63% in test [5]; -3.21% in test [6]. Moreover, the inhibition in test [7] was 5.26%; in test [8], 6.71%; in test [9], -6.05%; in [10], 6.75%.
As to `COc1cccc2c1c(NS(=O)(=O)c1ccc(Cl)s1)nn2Cc1cccc(CNC(=O)C(C)(C)O)c1`, the inhibition was -5.21% in test [1]; -4.44% in test [2]; -1.47% in [3]; 0.908% in test [4]; 7.32% in [5]; 8% in test [6]. For the same molecule, the inhibition in [7] is 1.18%; in test [8], 19.3%; in test [9], -8.69%; in test [10], -4.59%.
As for `O=C(O)CC1CCC2(CC1)CCN(c1cc(OC(F)(F)F)ccc1Cl)CC2`, the inhibition in test [1] is 8.63%; in test [2] it was 14.1%; in [3] it was 3.8%; in [4] it was 32.9%; in test [5] it was 19.4%; in [6], -1.74%. The inhibition in [7] was 7.5%; in test [8], 25.2%; in [9], -5.76%; in [10], 4.67%.
